In US9809574B2, “Isoindoline or isoquinoline compounds, a process for their preparation and pharmaceutical compositions containing them” (LES LABORATOIRES SERVIER, priority 2013, dated 2017) one finds IC50 data, which are given here for 13 compounds.

The term IC50 denotes the midpoint of a concentration-inhibition curve.

The target in one assay is Bcl-2 protein (histag-Bcl-2, UniProtKB P10415) (Homo sapiens (Human), UniProt P10415). The assay is described as follows: Inhibition of Bcl-2 by the fluorescence polarisation technique. The conditions noted are these: fluorescence polarisation test; incubation for 2 hours; read-out: IC50 (nM) Bcl-2 FP. In kind it is binding. From the text: For partial inhibitors, the percentage fluorescence polarisation inhibition for a given concentration of the test compound is indicated.

Assay [1] concerns RS4; 11 leukaemia cell line. The assay is described as follows: In vitro cytotoxicity, Microculture Tetrazolium Assay (MTT). In kind it is cell-based. The conditions noted are these: Homo sapiens, 11 cells exposed for 48 hours. As for the experimental part: The cytotoxicity studies were carried out on the RS4; 11 leukaemia cell line and on H146 small Cell Lung Carcinoma cell line. The cells are distributed onto microplates and exposed to the test compounds for 48 hours. The cell viability is then quantified by a colorimetric assay, the Microculture Tetrazolium Assay (Cancer Res., 1987, 47, 939-942).

Structures are written as SMILES.

Chain of Bcl-2 protein (P10415 whole entry): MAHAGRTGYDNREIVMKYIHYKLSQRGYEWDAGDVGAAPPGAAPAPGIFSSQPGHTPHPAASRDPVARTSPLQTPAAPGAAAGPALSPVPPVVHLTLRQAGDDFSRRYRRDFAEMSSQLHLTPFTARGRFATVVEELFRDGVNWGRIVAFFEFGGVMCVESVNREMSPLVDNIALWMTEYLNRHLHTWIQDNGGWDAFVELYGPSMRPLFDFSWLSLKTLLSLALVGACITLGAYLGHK

`Cc1c(C(=O)N(C)c2ccc(O)cc2)cc(-c2cc3c(cc2C(=O)N2Cc4ccccc4C[C@H]2C)CN(C(=O)Oc2cccc(CCC(=O)N(C)C)c2)CC3)n1C` [Example 776, 3-[2-(Dimethylcarbamoyl)ethyl]phenyl 6-{4-[(4-hydroxyphenyl)(methyl)carbamoyl]-1,5-dimethyl-1H-pyrrol-2-yl}-7-[(3R)-3-methyl-1,2,3,4-tetrahydroisoquinoline-2-carbonyl]-1,2,3,4-tetrahydroisoquinoline-2-carboxylate]: the half-maximal inhibitory concentration (IC50) on Bcl-2 protein worked out at 2.2 nM; in assay [1] it was 1.1 nM.

For the compound `Cc1c(C(=O)N(C)c2ccc(O)cc2)cc(-c2cc3c(cc2C(=O)N2Cc4ccccc4C[C@H]2CN(C)C)CN(C(=O)Cc2ccccc2)CC3)n1C` [Example 777, 5-{7-[(3S)-3-[(Dimethylamino)methyl]-1,2,3,4-tetrahydroisoquinoline-2-carbonyl]-2-(2-phenylacetyl)-1,2,3,4-tetrahydroisoquinolin-6-yl}-N-(4-hydroxyphenyl)-N,1,2-trimethyl-1H-pyrrole-3-carboxamide], the IC50 at Bcl-2 protein worked out at 4.1 nM; in assay [1], 30 nM.

Consider `Cc1c(C(=O)N(C)c2ccc(O)cc2)cc(-c2cc3c(cc2C(=O)N2Cc4ccccc4C[C@H]2CN2CCN(C)CC2)CN(C(=O)Cc2ccccc2)CC3)n1C` [Example 778, N-(4-Hydroxyphenyl)-N,1,2-trimethyl-5-{7-[(3S)-3-[(4-methylpiperazin-1-yl)methyl]-1,2,3,4-tetrahydroisoquinoline-2-carbonyl]-2-(2-phenylacetyl)-1,2,3,4-tetrahydroisoquinolin-6-yl}-1H-pyrrole-3-carboxamide], for which the IC50 on Bcl-2 protein came out at 3.1 nM; in assay [1], 52 nM.

Regarding `Cc1c(C(=O)N(C)c2ccc(O)cc2)cc(-c2cc3c(cc2C(=O)N2Cc4ccccc4C[C@H]2CCN2CCOCC2)CN(C(=O)Cc2ccccc2)CC3)n1C` [Example 779, N-(4-Hydroxyphenyl)-N,1,2-trimethyl-5-{7-[(3S)-3-[2-(morpholin-4-yl)ethyl]-1,2,3,4-tetrahydroisoquinoline-2-carbonyl]-2-(2-phenylacetyl)-1,2,3,4-tetrahydroisoquinolin-6-yl}-1H-pyrrole-3-carboxamide], the values for the IC50 (at Bcl-2 protein; in assay [1]) were 2.9 nM and 24 nM, respectively.

`CCN(C(=O)c1cc(-c2cc3c(cc2C(=O)N2Cc4ccccc4C[C@H]2CN2CCOCC2)CN(C(=O)Cc2ccccc2)CC3)n(C)c1C)c1ccc(O)cc1` [Example 780, N-Ethyl-N-(4-hydroxyphenyl)-1,2-dimethyl-5-{7-[(3S)-3-(morpholin-4-ylmethyl)-1,2,3,4-tetrahydroisoquinoline-2-carbonyl]-2-(2-phenylacetyl)-1,2,3,4-tetrahydroisoquinolin-6-yl}-1H-pyrrole-3-carboxamide]: the half-inhibitory concentration (IC50) was found to be 3.5 nM on Bcl-2 protein and 17 nM in assay [1].

For the compound `CCCN(C(=O)c1cc(-c2cc3c(cc2C(=O)N2Cc4ccccc4C[C@H]2CN2CCOCC2)CN(C(=O)Cc2ccccc2)CC3)n(C)c1C)c1ccc(O)cc1` [Example 781, N-(4-Hydroxyphenyl)-1,2-dimethyl-5-{7-[(3S)-3-(morpholin-4-ylmethyl)-1,2,3,4-tetrahydroisoquinoline-2-carbonyl]-2-(2-phenylacetyl)-1,2,3,4-tetrahydroisoquinolin-6-yl}-N-propyl-1H-pyrrole-3-carboxamide], the IC50 at Bcl-2 protein turned out to be 2.6 nM; in assay [1], 9.7 nM.

For `Cc1c(C(=O)N(C)c2ccc(O)cc2)cc(-c2cc3c(cc2C(=O)N2Cc4ccccc4C[C@H]2CN(C)C)CN(C(=O)C(F)(F)F)CC3)n1C` [Example 782, 5-{7-[(3S)-3-[(Dimethylamino)methyl]-1,2,3,4-tetrahydroisoquinoline-2-carbonyl]-2-(trifluoroacetyl)-1,2,3,4-tetrahydroisoquinolin-6-yl}-N-(4-hydroxyphenyl)-N,1,2-trimethyl-1H-pyrrole-3-carboxamide], the IC50 at Bcl-2 protein was determined as 51 nM; in assay [1], 112 nM.

With `Cc1c(C(=O)N(C)c2ccc(O)cc2)cc(-c2cc3c(cc2C(=O)N2Cc4ccccc4C[C@H]2CN2CCN(C)CC2)CN(C(=O)C(F)(F)F)CC3)n1C` [Example 783, N-(4-Hydroxyphenyl)-N,1,2-trimethyl-5-{7-[(3S)-3-[(4-methylpiperazin-1-yl)methyl]-1,2,3,4-tetrahydroisoquinoline-2-carbonyl]-2-(trifluoroacetyl)-1,2,3,4-tetrahydroisoquinolin-6-yl}-1H-pyrrole-3-carboxamide], the figures for the IC50 (on Bcl-2 protein; in assay [1]) were 23 nM and above 150 nM, respectively.

With `Cc1c(C(=O)N(C)c2ccc(O)cc2)cc(-c2cc3c(cc2C(=O)N2Cc4ccccc4C[C@H]2CN2CCOCC2)CN(C(=O)Oc2ccc(Br)cc2)CC3)n1C` [Example 784, 4-Bromophenyl 6-{4-[(4-hydroxyphenyl)(methyl)carbamoyl]-1,5-dimethyl-1H-pyrrol-2-yl}-7-[(3S)-3-(morpholin-4-ylmethyl)-1,2,3,4-tetrahydroisoquinoline-2-carbonyl]-1,2,3,4-tetrahydroisoquinoline-2-carboxylate], the IC50 at Bcl-2 protein turned out to be 5.1 nM; in assay [1], 2.9 nM.

Take `Cc1ccc(OC(=O)N2CCc3cc(-c4cc(C(=O)N(C)c5ccccc5)c(C)n4C)c(C(=O)N4Cc5ccccc5C[C@H]4C)cc3C2)cc1` [Example 785, 4-Methylphenyl 6-{1,5-dimethyl-4-[methyl(phenyl)carbamoyl]-1H-pyrrol-2-yl}-7-[(3R)-3-methyl-1,2,3,4-tetrahydroisoquinoline-2-carbonyl]-1,2,3,4-tetrahydroisoquinoline-2-carboxylate]: the values for the IC50 (at Bcl-2 protein; in assay [1]) were 3.3 nM and 7.8 nM, respectively.

Consider `Cc1c(C(=O)N(C)c2ccccc2)cc(-c2cc3c(cc2C(=O)N2Cc4ccccc4C[C@H]2C)CN(C(=O)Oc2ccc(C#N)cc2)CC3)n1C` [Example 786, 4-Cyanophenyl 6-{1,5-dimethyl-4-[methyl(phenyl)carbamoyl]-1H-pyrrol-2-yl}-7-[(3R)-3-methyl-1,2,3,4-tetrahydroisoquinoline-2-carbonyl]-1,2,3,4-tetrahydroisoquinoline-2-carboxylate], for which the half-maximal inhibitory concentration (IC50) on Bcl-2 protein worked out at 8.4 nM; in assay [1], 24 nM.

Regarding `Cc1c(C(=O)N(C)c2ccccc2)cc(-c2cc3c(cc2C(=O)N2Cc4ccccc4C[C@H]2C)CN(C(=O)Oc2cccc(CCC(=O)N(C)C)c2)CC3)n1C` [Example 787, 3-[2-(Dimethylcarbamoyl)ethyl]phenyl 6-{1,5-dimethyl-4-[methyl(phenyl)carbamoyl]-1H-pyrrol-2-yl}-7-[(3R)-3-methyl-1,2,3,4-tetrahydroisoquinoline-2-carbonyl]-1,2,3,4-tetrahydroisoquinoline-2-carboxylate], the IC50 at Bcl-2 protein came out at 5 nM; in assay [1], 6.2 nM.

`Cc1c(C(=O)N(C)c2ccccc2)cc(-c2cc3c(cc2C(=O)N2Cc4ccccc4C[C@H]2C)CN(C(=O)Oc2ccc(CCC(=O)N(C)C)cc2)CC3)n1C` [Example 788, 4-[2-(Dimethylcarbamoyl)ethyl]phenyl 6-{1,5-dimethyl-4-[methyl(phenyl)carbamoyl]-1H-pyrrol-2-yl}-7-[(3R)-3-methyl-1,2,3,4-tetrahydroisoquinoline-2-carbonyl]-1,2,3,4-tetrahydroisoquinoline-2-carboxylate]: the 50% inhibitory concentration (IC50) on Bcl-2 protein is 4.4 nM; in assay [1], 14 nM.
